Experimental data taken from article PMC3356326 (PLoS ONE, 2012).
Like-named read-outs stand apart in the source and are kept apart here.

How the values were obtained:
[1] = Static PET image quantification of tissue uptake at 60 min (last frame of dynamic scan); assay type: in vivo; conditions: female, athymic nude, mouse, iv, 3.7 MBq, total radioactivity, tail-vein injection ~3.7 MBq, static PET image at 1 h, mean ± SD, n = 4/group
Protocol: The U87MG human glioblastoma tumor model, which has been documented to express high level of integrin αvβ3 [32], was selected for PET imaging. The U87MG cells obtained from ATCC (Manassas, VA) were cultured in DMEM medium supplemented with 10% fetal bovine serum (FBS), 100 IU/mL penicillin, and 100 µg/mL streptomycin (Invitrogen), and in a humidified atmosphere containing 5% CO2 at 37°C. The xenografted model was established by inoculation of 5×10^6 cells into the left shoulder of each female athymic nude mouse at 5–6 weeks of age (Harlan Laboratories). Tumor growth was monitored by caliper measurements of perpendicular axes of the tumor three times a week after the tumors are palpable. The tumor volume was determined as the formula: V = a×(b^2)/2, where a and b are the length and width of each tumor, respectively, in mm. The U87MG xenografted mice underwent PET imaging when the tumor volume reached about 300 mm^3 (about 3 weeks after inoculation). This study was approved by the NIH Clinical Center Animal Care and Use Committee (ACUC). Moreover, all mice were maintained in a specific pathogen-free facility in accordance with the requirements of the ACUC.
(§1) Dynamic PET data acquisition was performed using an Inveon microPET scanner (Siemens Medical Solutions). With the assistance of the Inveon system's positioning laser, U87MG tumor-bearing mouse was placed with its tumor located at the center of field of view (FOV), where the highest imaging sensitivity can be achieved. […] During the acquisition period, a thermostat-controlled thermal heater maintained the body temperature of mice. PET images were reconstructed with 2 iterations of 3-dimensional ordered-subsets expectation maximum (3D OSEM) with 14 subsets, followed by 18 iterations of maximum a posteriori (MAP) algorithm with a smoothing parameter of 0.1 (frame rates: 10×30 s, 5×60 s, 5×120 s and 10×240 s). No attenuation correction was performed in this study.
(§2) In the dynamic PET image analysis, regions of interest (ROIs) were measured with the Inveon Research Workplace (IRW) 3.0 software. ROI was determined by manually superimposing the ellipsoid volume of interest (VOI) to the target tissue on the last frame of the entire 60-min dynamic image sequence. Then a threshold of 30% maximum was set to screen the voxels with lower values in the entire VOI because of possible tumor heterogeneity and shape irregularity. The time–activity curves were derived by superimposing the same VOI on each time frame of the entire 60-min dynamic image sequence and the value of each time point represents the overall concentration of radioactivity in the tissue. The activity concentrations were determined by the mean pixel intensity within each VOI, which were converted to µCi/ml using a calibration constant. Assuming the tissue density of 1 g/ml, the ROI activity was converted to µCi/g and normalized as percent injected dose per gram (%ID/g). The tissue uptake quantification of static scan at 60 min was determined from the last frame of dynamic images. The arterial blood input function was estimated by drawing a VOI in the region of left ventricle on the reconstructed PET image at the 0.5 min time point (the second frame of dynamic PET image series). The region of muscle contralateral to the tumor was selected as the reference tissue.

U87MG tumor-bearing mice = assay: Logan graphical analysis with image-derived input function of 60-min dynamic PET: volumes of distribution; assay type: in vivo, mouse; conditions: mean ± SD, n = 4/group
Protocol: as §1, §2
Kinetic analysis of regional TACs was performed based on two-tissue (three-compartment) and one-tissue (two-compartment) model (Fig. 2). The three-compartment model consists of unmetabolized radiotracer in arterial blood plasma (Cp), free or non-specific binding tracer in interstitial and intracellular space (Ct), and tracer bound specifically to integrin (Cm). Both Ct and Cm occupy the same physical volume. The ROI(t) represents the sum of radioactivity from all compartments and includes the plasma volume fraction. Similarly, the two-compartment model describes RGD tracer kinetics using muscle as reference tissue and Ctref represents free (non-specific binding) tracer in the reference tissue (muscle) region. Generally speaking, kinetic parameters K1 [ml/g/min], k2 [1/min], k3 [1/min], k4 [1/min] represent the transport or binding rates of plasma perfusion into tissue, clearance from plasma, specific binding and dissociation, respectively.
Based on Logan plot shown in Eq. 1 [28], [33], the ratio between the integral of Cp(t) and the instantaneous value of ROI(t), and the ratio between the integral and the instantaneous value of ROI(t) become linearly related when the exchange between the target tissue and plasma reaches an equilibrium (t>t*). [drawing 1] (1) DV denotes the distribution volume and can be easily calculated from the linear regression. DV is a measure of the capacity of tissue to bind a particular tracer and can be regarded as the sum of specific (VS) and nonspecific distribution (VND). [drawing 2] (2) [drawing 3] (3) Total volume of distribution is defined in equation 4. [drawing 4] (4) K1, k2, k3, and k4 are calculated by linear fitting to 60-min dynamic PET data.

[2] = kidneys, U87MG tumor-bearing mice, read-out: Tissue uptake, Kidneys
[3] = liver, U87MG tumor-bearing mice, read-out: Tissue uptake, Liver
[4] = muscle, U87MG tumor-bearing mice, read-out: Tissue uptake, Muscle
[5] = tumor (U87MG xenograft), U87MG xenograft, female athymic nude mice, read-out: Tissue uptake, Tumor

Structure (SMILES)	tissue uptake at 1 h [1, 2]	tissue uptake at 1 h [1, 3]	tissue uptake at 1 h [1, 4]	Volume of Distribution (VT), Kidneys (U87MG tumor-bearing mice)	Volume of Distribution (VT), Liver (U87MG tumor-bearing mice)	Volume of Distribution (VT), Muscle (U87MG tumor-bearing mice)	Volume of Distribution (VT), Tumor (U87MG tumor-bearing mice)	tissue uptake at 1 h [1, 5]
N=C(N)NCCC[C@@H]1NC(=O)[C@H](CCCCNC(=O)CC[C@H](NC(=O)COCCOCCOCCNC(=S)Nc2ccc(C[C@H]3CN(CC(=O)O)CCN(CC(=O)O)CCN3CC(=O)O)cc2)C(=O)NCCCC[C@@H]2NC(=O)[C@@H](Cc3ccc(O)cc3)NC(=O)[C@H](CC(=O)O)NC(=O)CNC(=O)[C@H](CCCNC(=N)N)NC2=O)NC(=O)[C@@H](Cc2ccc(O)cc2)NC(=O)[C@H](CC(=O)O)NC(=O)CNC1=O [[^18F]AlF-NOTA-PRGD2] [listing 1 of 2 here]	4.67 ± 1.08 %ID/g	1.21 ± 0.54 %ID/g	0.53 ± 0.11 %ID/g					
N=C(N)NCCC[C@@H]1NC(=O)[C@H](CCCCNC(=O)CC[C@H](NC(=O)COCCOCCOCCNC(=S)Nc2ccc(C[C@H]3CN(CC(=O)O)CCN(CC(=O)O)CCN3CC(=O)O)cc2)C(=O)NCCCC[C@@H]2NC(=O)[C@@H](Cc3ccc(O)cc3)NC(=O)[C@H](CC(=O)O)NC(=O)CNC(=O)[C@H](CCCNC(=N)N)NC2=O)NC(=O)[C@@H](Cc2ccc(O)cc2)NC(=O)[C@H](CC(=O)O)NC(=O)CNC1=O [[^18F]AlF-NOTA-PRGD2] [listing 2 of 2 here]				5.24±0.24	1.23±0.085	0.53±0.086	2.65±0.34	
CC(F)C(=O)NCCOCCOCCOCC(=O)N[C@@H](CCC(=O)NCCCC[C@@H]1NC(=O)[C@@H](Cc2ccc(O)cc2)NC(=O)[C@H](CC(=O)O)NC(=O)CNC(=O)[C@H](CCCNC(=N)N)NC1=O)C(=O)NCCCC[C@@H]1NC(=O)[C@@H](Cc2ccc(O)cc2)NC(=O)[C@H](CC(=O)O)NC(=O)CNC(=O)[C@H](CCCNC(=N)N)NC1=O (some centres unmarked) [[^18F]FPPRGD2, reference compound]	2.78 ± 0.58 %ID/g	1.1 ± 0.18 %ID/g	0.36 ± 0.089 %ID/g	4.10±0.27	0.97±0.14	0.44±0.071	2.35±0.22	2.91 ± 0.35 %ID/g

Second part, the compound after the results:

tissue uptake at 1 h [1, 2]	tissue uptake at 1 h [1, 3]	tissue uptake at 1 h [1, 4]	Volume of Distribution (VT), Kidneys (U87MG tumor-bearing mice)	Volume of Distribution (VT), Liver (U87MG tumor-bearing mice)	Volume of Distribution (VT), Muscle (U87MG tumor-bearing mice)	Volume of Distribution (VT), Tumor (U87MG tumor-bearing mice)	tissue uptake at 1 h [1, 5]	Structure (SMILES)
							2.42 ± 0.56 %ID/g	N=C(N)NCCC[C@@H]1NC(=O)[C@H](CCCCNC(=O)CC[C@H](NC(=O)COCCOCCOCCNC(=S)Nc2ccc(C[C@H]3CN(CC(=O)O)CCN(CC(=O)O)CCN3CC(=O)O)cc2)C(=O)NCCCC[C@@H]2NC(=O)[C@@H](Cc3ccc(O)cc3)NC(=O)[C@H](CC(=O)O)NC(=O)CNC(=O)[C@H](CCCNC(=N)N)NC2=O)NC(=O)[C@@H](Cc2ccc(O)cc2)NC(=O)[C@H](CC(=O)O)NC(=O)CNC1=O [[^68Ga]Ga-NOTA-PRGD2, metal not drawn]
			3.37±0.56	1.24±0.11	0.57±0.064	2.07±0.12		N=C(N)NCCC[C@@H]1NC(=O)[C@H](CCCCNC(=O)CC[C@H](NC(=O)COCCOCCOCCNC(=S)Nc2ccc(C[C@H]3CN(CC(=O)O)CCN(CC(=O)O)CCN3CC(=O)O)cc2)C(=O)NCCCC[C@@H]2NC(=O)[C@@H](Cc3ccc(O)cc3)NC(=O)[C@H](CC(=O)O)NC(=O)CNC(=O)[C@H](CCCNC(=N)N)NC2=O)NC(=O)[C@@H](Cc2ccc(O)cc2)NC(=O)[C@H](CC(=O)O)NC(=O)CNC1=O [[^68Ga]Ga-NOTA-PRGD2] [metal not drawn]
